Experimental data taken from patent US20130029970A1 (priority 2009, published 2013).

Assays:
human CB2 receptors = target: T1, human CB2 receptors (Homo sapiens, UniProt P34972); experiment: cAMP assay in HEK-293 cells, hCB2 agonist; type: cell-based; conditions: inhibition of forskolin-stimulated cAMP, HEK-293 cells; for EC50: read-out: hCB2 EC50 (cAMP ag)
T1 construct: (cDNA clone) CNR0200000
Procedure, shortened: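 Stable hCB2 HEK-293 cells in HBSS/10 mM HEPES/0.1% fatty-acid-free BSA incubated 30 min at 37° C with compound; forskolin 90 uM in 3× compound mix.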

human CB2 (hCB2) = target: T2, human CB2 (hCB2) (Homo sapiens, UniProt P34972); experiment: 35S GTPγS binding assay, hCB2 agonist; type: biochemical; conditions: GTPγS agonist, HEK-293 membranes; read-out: hCB2 EC50 (GTPyS ag)
T2 construct: (cDNA clone) CNR0200000
T2 sequence (P34972 whole entry): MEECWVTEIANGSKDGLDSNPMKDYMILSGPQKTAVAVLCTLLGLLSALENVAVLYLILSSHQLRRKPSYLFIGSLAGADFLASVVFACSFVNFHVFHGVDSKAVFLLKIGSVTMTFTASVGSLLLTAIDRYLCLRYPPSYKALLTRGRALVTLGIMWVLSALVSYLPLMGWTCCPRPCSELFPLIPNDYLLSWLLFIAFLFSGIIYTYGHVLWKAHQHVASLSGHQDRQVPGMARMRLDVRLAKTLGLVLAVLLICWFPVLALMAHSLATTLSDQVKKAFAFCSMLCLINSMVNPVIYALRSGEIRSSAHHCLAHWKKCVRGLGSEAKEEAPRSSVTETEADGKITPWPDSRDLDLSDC
Procedure, shortened: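 Agonist-stimulated [35S]GTPγS (0.1 nM) binding measured by scintillation proximity after 90 min at room temperature. Reaction buffer: 50 mM HEPES pH 7.4, 100 mM NaCl, 5 mM MgCl2, 0.001% saponin plus 20 uM GDP. Membranes (5 μg) came from transfected cells expressing hCB2 cDNA (pcDNA3.1+ vector).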

human CB1 (hCB1) = target: T3, human CB1 (hCB1) (Homo sapiens, UniProt P21554); experiment: 35S GTPγS binding assay, hCB1 agonist; type: biochemical; conditions: GTPγS agonist, HEK-293 membranes; read-out: hCB1 EC50 (GTPyS ag)
T3 construct: (cDNA clone) CNR01L000
T3 sequence (P21554 whole entry): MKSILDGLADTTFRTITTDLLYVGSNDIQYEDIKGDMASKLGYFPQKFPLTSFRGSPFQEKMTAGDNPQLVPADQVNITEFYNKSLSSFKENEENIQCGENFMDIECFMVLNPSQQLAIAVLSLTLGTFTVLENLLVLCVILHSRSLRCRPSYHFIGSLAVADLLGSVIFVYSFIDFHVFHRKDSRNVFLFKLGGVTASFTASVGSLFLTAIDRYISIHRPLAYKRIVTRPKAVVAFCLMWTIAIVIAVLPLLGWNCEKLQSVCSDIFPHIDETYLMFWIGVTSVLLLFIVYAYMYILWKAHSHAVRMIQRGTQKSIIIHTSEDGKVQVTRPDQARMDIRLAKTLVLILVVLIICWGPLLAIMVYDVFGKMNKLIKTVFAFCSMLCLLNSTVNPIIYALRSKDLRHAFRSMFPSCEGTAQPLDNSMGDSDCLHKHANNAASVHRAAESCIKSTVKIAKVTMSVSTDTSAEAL

[1] = target: T4, recombinant human cannabinoid receptor CB2 (Homo sapiens, UniProt P34972); experiment: Cannabinoid receptor radioligand binding assay, [3H]-CP 55,940 displacement, hCB2
T4 construct: (cDNA clone) CNR0200000
T4 sequence (P34972 whole entry): as the sequence (P34972 whole entry) above
Procedure, shortened: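 Receptor source: membrane pellet (40,000×g) from transfected cells, stored in HEPES pH 7.4/MgCl2/EDTA/sucrose buffer.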

T1 sequence (P34972 whole entry): as above

COc1ccc(C(=O)c2cc3cc(C)n(CCN4CCCOCC4)c3s2)cn1 [Compound 158, (6-(2-(1,4-oxazepan-4-yl)ethyl)-5-methyl-6H-thieno[2,3-b]pyrrol-2-yl)(6-methoxypyridin-3-yl)methanone]
EC50 (human CB2 receptors): < 100 nM
EC50 (human CB2 (hCB2)): 100 to 1000 nM
EC50 (human CB1 (hCB1)): > 10000 nM

CCOc1ccc(C(=O)c2cc3cc(C)n(CCN4CCOCC4)c3s2)c(Cl)c1 [Compound 126, (2-chloro-4-ethoxyphenyl)(5-methyl-6-(2-morpholinoethyl)-6H-thieno[2,3-b]pyrrol-2-yl)methanone]
EC50 (human CB2 receptors): < 100 nM
IC50 [1]: < 100 nM
EC50 (human CB2 (hCB2)): < 100 nM
EC50 (human CB1 (hCB1)): 1000 to 10000 nM

Cc1cc2cc(C(=O)c3cccc(Cl)c3Cl)sc2n1S(=O)(=O)N1CCOCC1 [Compound 45, (2,3-Dichlorophenyl)(5-methyl-6-(morpholinosulfonyl)-6H-thieno[2,3-b]pyrrol-2-yl)methanone]
EC50 (human CB2 receptors): < 100 nM
IC50 [1]: < 100 nM
EC50 (human CB2 (hCB2)): < 100 nM
EC50 (human CB1 (hCB1)): 100 to 1000 nM

COc1ccc(C(=O)c2cc3cc(C)n(CCNC4CCOC4)c3s2)cn1 (centres unmarked) [Compound 164, (6-methoxypyridin-3-yl)(5-methyl-6-(2-((tetrahydrofuran-3-yl)amino)ethyl)-6H-thieno[2,3-b]pyrrol-2-yl)methanone]
EC50 (human CB2 receptors): < 100 nM
EC50 (human CB2 (hCB2)): 1000 to 10000 nM
EC50 (human CB1 (hCB1)): > 10000 nM

Cc1cc2cc(C(=O)c3cccc(Cl)c3Cl)sc2n1S(=O)(=O)CC1CCOCC1 [Compound 46, (2,3-Dichlorophenyl)(5-methyl-6-((tetrahydro-2H-pyran-4-yl)methylsulfonyl)-6H-thieno[2,3-b]pyrrol-2-yl)methanone]
EC50 (human CB2 receptors): < 100 nM
IC50 [1]: < 100 nM
EC50 (human CB2 (hCB2)): < 100 nM
EC50 (human CB1 (hCB1)): < 100 nM

COc1ccc(C(=O)c2cc3cc(C)n(S(=O)(=O)CC4CCOCC4)c3s2)cc1 [Compound 57, (4-Methoxyphenyl)(5-methyl-6-((tetrahydro-2H-pyran-4-yl)methylsulfonyl)-6H-thieno[2,3-b]pyrrol-2-yl)methanone]
EC50 (human CB2 receptors): < 100 nM
IC50 [1]: < 100 nM
EC50 (human CB2 (hCB2)): < 100 nM
EC50 (human CB1 (hCB1)): < 100 nM

COc1ccc(C(=O)c2cc3cc(C)n(CCN4CCCC4)c3s2)cn1 [Compound 167, (6-methoxypyridin-3-yl)(5-methyl-6-(2-(pyrrolidin-1-yl)ethyl)-6H-thieno[2,3-b]pyrrol-2-yl)methanone]
EC50 (human CB2 receptors): < 100 nM
EC50 (human CB2 (hCB2)): 1000 to 10000 nM
EC50 (human CB1 (hCB1)): > 10000 nM

COc1ccc(C(=O)c2cc3cc(C)n(CCC4CCOCC4)c3s2)cc1 [Compound 82, (4-Methoxyphenyl)(5-methyl-6-(2-(tetrahydro-2H-pyran-4-yl)ethyl)-6H-thieno[2,3-b]pyrrol-2-yl)methanone]
EC50 (human CB2 receptors): < 100 nM
IC50 [1]: < 100 nM
EC50 (human CB2 (hCB2)): < 100 nM
EC50 (human CB1 (hCB1)): 100 to 1000 nM

Cc1cc2cc(C(=O)c3cccc(Cl)c3Cl)sc2n1CCN1CCN(C)CC1 [Compound 33, (2,3-Dichlorophenyl)(5-methyl-6-(2-(4-methylpiperazin-1-yl)ethyl)-6H-thieno[2,3-b]pyrrol-2-yl)methanone]
hCB2 EC50 (cAMP ag, nM) (human CB2 receptors): NS (NS means “Not Significant,” which means less than 30% agonist activity when compared to the positive control.)
IC50 [1]: 1000 to 10000 nM
EC50 (human CB1 (hCB1)): < 100 nM

CCS(=O)(=O)n1c(C)cc2cc(C(=O)c3cccnc3Cl)sc21 [Compound 43, (2-Chloropyridin-3-yl)(6-(ethylsulfonyl)-5-methyl-6H-thieno[2,3-b]pyrrol-2-yl)methanone]
EC50 (human CB2 receptors): < 100 nM
IC50 [1]: 100 to 1000 nM
EC50 (human CB2 (hCB2)): < 100 nM

COc1ccc(C(=O)c2cc3cc(C)n(CCCCl)c3s2)c(Cl)c1 [Compound 85, (2-Chloro-4-methoxyphenyl)(6-(3-chloropropyl)-5-methyl-6H-thieno[2,3-b]pyrrol-2-yl)methanone]
EC50 (human CB2 receptors): < 100 nM
IC50 [1]: < 100 nM
EC50 (human CB2 (hCB2)): < 100 nM

Cc1cc2cc(C(=O)c3ccc(F)cc3F)sc2n1CCN1CCOCC1 [Compound 135, (2,4-difluorophenyl)(5-methyl-6-(2-morpholinoethyl)-6H-thieno[2,3-b]pyrrol-2-yl)methanone]
EC50 (human CB2 receptors): < 100 nM
IC50 [1]: 100 to 1000 nM
EC50 (human CB2 (hCB2)): 100 to 1000 nM
